# Patent US20250213700A1, “COMPOUNDS, COMPOSITIONS, AND METHODS FOR CELL-SPECIFIC PHARMACOLOGY” (Duke University, priority 2022, published 2025)
# Tested on: endogenous GABAARs
# Test: all-optical assay of GABAAR antagonism in primary neuronal culture
# Format: cell-based, rat
# Settings: ddHTP vs +HTP cells, 15 min, 15 uM GABA
# Description: (§1) Cultured neuronal assays: Preparation of hippocampal cultures: Mixed glial and neuronal cultures were prepared from the hippocampus of postnatal day 0 to 1 Sprague-Dawley rat pups. Separate pools of dissociated cells were transfected via electroporation (LONZA, V4SP-3096) with plasmid constructs, and depending on assay directives, either plated individually or mixed with a different pool of electroporated cells after a 10 min recovery period. Cells were cultured on coverslips (Deckglaser) pre-treated with high molecular weight poly-D-lysine (Sigma, P7405; 0.05 mg/mL) in 24-well plates and maintained in NbActiv4 (BrainBits, Nb4-500) at 37 C, 5% CO2. Media was changed by half at DIV3 or 4 and then weekly thereafter; experiments were performed between DIV16 to DIV18.
# Gabazine: Dissociated neurons were electroporated with constructs and cultured for 2 weeks. The assay was performed in the same BASE solution as described above, but with the addition of synaptic blockers CPP (NMDAR antagonist; Tocris) and NBQX (AMPAR antagonist; Abcam, ab120046) to isolate GABAR activity, and a small amount of GABA (GABAR agonist; Sigma) to ensure GABAR activity (=GABAR-BASE). […] Instead, a high dose of regular gabazine was used to completely silence any cells that may not have had realized full antagonism by the end of the assay. Imaging alignment, proof-reading and analysis were performed in a similar fashion to the AMPAR assay using MatLab.
# It was next focused on blocking the GABAAR, a ubiquitous transducer of synaptic inhibition. […] The structure-activity literature of gabazine, a selective GABAAR antagonist, was explored. The core gabazine pharmacophore includes of a 3-amino, 6-phenoxy-pyridazine ring, with GABA embedded in the 2-position (2 butyric acid). Based on historical, low-potency predecessors of gabazine, a longer GABA moiety (2 pentanoic acid), and methyl substituents (e.g., 5-CH3) were explored (FIG. 2F). For each variant, the 6-phenoxy moiety was modified to make a gabazinealkyne module, which was click-conjugated to DART.2. Several variants were made, including gabazine.1^DART.2 (2 butyric acid, 5-H), gabazine.5DART.2 (2 pentanoic acid, 5-H), and gabazine.7DART.2 (2 pentanoic acid, 5-CH3). An all-optical assay of endogenous GABAARs in primary neuronal culture was then developed. […] Excitatory synapses were blocked, such that opto-stimulation with ChR2 became the only source of neural excitation.
row,SMILES,DW (t=15 m)
1,COc1cc(CCCCl)ccc1CCOCCNC(=O)c1ccc(CNC(=O)CCOCCOCCOCCOCCOCCOCCOCCOCCOCCOCCOCCOCCOCCOCCOCCOCCOCCOCCOCCOCCOCCOCCOCCOCCOCCOCCOCCOCCOCCOCCOCCOCCOCCOCCOCCOCCn2cc(COCCOCCOCCOCCOCCOCCOCCCCCCOc3ccc(-c4ccc(=N)n(CCCCC(=O)O)n4)cc3)nn2)cc1 [gabazine.5^DART.2],"1,500"

# Target: T1, HaloTag Protein (HTP) on +HTP neurons (Rhodococcus rhodochrous, UniProt P0A3G2, A155T/A167V/A172T/A224E/C128F/C176G/D78G/E160K/E257K/H272N/K175M/K195N/L47V/L88M/N227D/S58T/T264A/Y273L/Y87F)
# T1 construct: SSnlg signal peptide (residues 1-49 of mouse neuroligin-1) (N); ERXL (Kir2.1 trafficking and ER export signals); expressed in transfected cells; host or cells: primary rat hippocampal neurons, electroporated with plasmid
# Test: biotin-HTL capture dose-response on +HTP cultured neurons
# Format: cell-based, rat
# Settings: EC 50 (nM), concentration for half-maximal capture on +HTP neurons following 15 minutes of incubation
# Description: as §1
# For any given neuronal assay, coverslips were first washed briefly in a resting BASE solution containing (in mM): 4 KCl, 2 CaCl2), 2 MgCl2, 150 NaCl, 10 HEPES, 10 glucose, pH 7.4, before transfer to a glass-bottom, 24-well imaging plate (Cellvis, P24-1.5H—N). Live cell imaging was performed on an Olympus IX83 inverted fluorescent microscope (10× objective, […].) with LED illumination for GFP (Excitation=485 nm), TR (Ex=560 nm), Cy5/Alexa647 (Ex=640 nm) and Cy7/AlexaFluor750 (Cy7=740 nm) depending on the specific assay directives.
# biotin-HTL: Dissociated neurons were electroporated with either the +HTP or ddHTP construct and cultured as described above. A dilution series for both the biotin-PEG12-HTL.1 and biotin-PEG12-HTL.2 compounds was made in BASE solution containing 1% BSA (Sigma A7904), representing 12 final concentrations (in uM) between 10 and 0.001. After a brief rinse in BASE+BSA to acclimate the live neurons to room temperature and avoid temperature effects to the binding kinetics, a single coverslip was incubated in one of the twelve dilutions for 15 min, washed twice in BASE+BSA, then incubated in a 1:500 dilution of Streptavidin-AlexaFluor488 (Invitrogen) for 15 min. The neurons were rinsed four times then transferred to a glass-bottom imaging plate containing BASE+BSA. Each coverslip was imaged in its entirety by combining several 10× images (TR at 10 ms; GFP at 100 ms) together using the Olympus CellSens software stitching algorithm. A dose-response curve was created from the individual coverslips using MatLab.
# To enable direct quantification of capture efficiency, commercially available HTL (i.e., HTL.1) were conjugated to biotin via a flexible polyethylene glycol linker of moderate length (PEG12), to mimic the longer (PEG36) linker typically used in an RxDART. Capture kinetics were characterized on cultured neurons expressing HTP on their surface [HTPNLG(432-648), as in, to model the cellular microenvironment of interest. Dose-response curves were performed by incubating neuronal coverslips with a given ligand for 15 min, followed by washing, fluorescent labeling of biotin, and quantification of capture. […] Thus, it was reasoned that improving HTL50 would widen the DW for any Rx cargo.
# T1 sequence (P0A3G2 other isoform, or with tags, fused parts or gaps with the stated changes): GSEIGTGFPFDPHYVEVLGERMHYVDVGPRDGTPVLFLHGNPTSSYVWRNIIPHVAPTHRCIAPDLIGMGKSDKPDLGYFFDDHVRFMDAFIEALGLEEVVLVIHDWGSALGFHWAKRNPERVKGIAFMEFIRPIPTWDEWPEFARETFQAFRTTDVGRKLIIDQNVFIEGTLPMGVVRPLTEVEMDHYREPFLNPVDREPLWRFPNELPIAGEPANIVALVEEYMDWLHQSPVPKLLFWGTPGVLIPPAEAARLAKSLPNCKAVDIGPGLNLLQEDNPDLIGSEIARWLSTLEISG
row,SMILES,EC50 [nM]
1,O=C(CCCC[C@@H]1SC[C@@H]2NC(=O)N[C@@H]21)NCCOCCOCCOCCOCCOCCOCCOCCOCCOCCOCCOCCOCCC(=O)NCCOCCOCCCCCCCl,1000
2,O=C(CCCC[C@@H]1SC[C@@H]2NC(=O)N[C@@H]21)NCCOCCOCCOCCOCCOCCOCCOCCOCCOCCOCCOCCOCCC(=O)NCc1ccc(C(=O)NCCOCCOCCCCCCCl)cc1,150
3,COc1cc(CCCCl)ccc1CCOCCNC(=O)c1ccc(CNC(=O)CCOCCOCCOCCOCCOCCOCCOCCOCCOCCOCCOCCOCCNC(=O)CCCC[C@@H]2SC[C@@H]3NC(=O)N[C@@H]32)cc1,10
4,COc1cc(CCCCCl)ccc1CCOCCNC(=O)c1ccc(CNC(=O)CCOCCOCCOCCOCCOCCOCCOCCOCCOCCOCCOCCOCCNC(=O)CCCC[C@@H]2SC[C@@H]3NC(=O)N[C@@H]32)cc1,30
5,COc1cc(/C=C/CCCl)ccc1CCOCCNC(=O)c1ccc(CNC(=O)CCOCCOCCOCCOCCOCCOCCOCCOCCOCCOCCOCCOCCNC(=O)CCCC[C@@H]2SC[C@@H]3NC(=O)N[C@@H]32)cc1,20
6,COc1cc(CCCCCCl)ccc1CCOCCNC(=O)c1ccc(CNC(=O)CCOCCOCCOCCOCCOCCOCCOCCOCCOCCOCCOCCOCCNC(=O)CCCC[C@@H]2SC[C@@H]3NC(=O)N[C@@H]32)cc1,4000
7,COc1cc(CCCCl)ccc1CC(=O)NCCNC(=O)c1ccc(CNC(=O)CCOCCOCCOCCOCCOCCOCCOCCOCCOCCOCCOCCOCCNC(=O)CCCC[C@@H]2SC[C@@H]3NC(=O)N[C@@H]32)cc1,20000
8,COc1cc(CCCCl)ccc1OCCCCNC(=O)c1ccc(CNC(=O)CCOCCOCCOCCOCCOCCOCCOCCOCCOCCOCCOCCOCCNC(=O)CCCC[C@@H]2SC[C@@H]3NC(=O)N[C@@H]32)cc1,50
9,COc1cc(CCCCBr)ccc1OCCCCNC(=O)c1ccc(CNC(=O)CCOCCOCCOCCOCCOCCOCCOCCOCCOCCOCCOCCOCCNC(=O)CCCC[C@@H]2SC[C@@H]3NC(=O)N[C@@H]32)cc1,30
10,O=C(CCCC[C@@H]1SC[C@@H]2NC(=O)N[C@@H]21)NCCOCCOCCOCCOCCOCCOCCOCCOCCOCCOCCOCCOCCC(=O)NCc1ccc(C(=O)NCCCCOc2ccc(CCCCCl)cc2O)cc1,30
11,COc1cc(CCCCI)ccc1OCCCCNC(=O)c1ccc(CNC(=O)CCOCCOCCOCCOCCOCCOCCOCCOCCOCCOCCOCCOCCNC(=O)CCCC[C@@H]2SC[C@@H]3NC(=O)N[C@@H]32)cc1,30
12,O=C(CCCC[C@H]1SC[C@H]2NC(=O)N[C@H]21)NCCOCCOCCOCCOCCOCCOCCOCCOCCOCCOCCOCCOCCC(=O)NCc1ccc(C(=O)NCCCCOc2ccc(CCCCCl)cc2F)cc1,45
13,CCOc1cc(CCCCCl)ccc1OCCCCNC(=O)c1ccc(CNC(=O)CCOCCOCCOCCOCCOCCOCCOCCOCCOCCOCCOCCOCCNC(=O)CCCC[C@@H]2SC[C@@H]3NC(=O)N[C@@H]32)cc1,70
14,Nc1cc(CCCCCl)ccc1OCCCCNC(=O)c1ccc(CNC(=O)CCOCCOCCOCCOCCOCCOCCOCCOCCOCCOCCOCCOCCNC(=O)CCCC[C@H]2SC[C@H]3NC(=O)N[C@H]32)cc1,70
15,O=C(CCCC[C@@H]1SC[C@@H]2NC(=O)N[C@@H]21)NCCOCCOCCOCCOCCOCCOCCOCCOCCOCCOCCOCCOCCC(=O)NCc1ccc(C(=O)NCCCCOc2ccc(CCCCCl)cc2Cl)cc1,100
16,O=C(CCCC[C@H]1SC[C@H]2NC(=O)N[C@H]21)NCCOCCOCCOCCOCCOCCOCCOCCOCCOCCOCCOCCOCCC(=O)NCc1ccc(C(=O)NCCCCOc2ccc(CCCCCl)cc2)cc1,110
17,O=C(CCCC[C@@H]1SC[C@@H]2NC(=O)N[C@@H]21)NCCOCCOCCOCCOCCOCCOCCOCCOCCOCCOCCOCCOCCC(=O)NCc1ccc(C(=O)NCCCCOc2ccc(CCCCCl)cc2OC(F)(F)F)cc1,1500
18,COc1c(/C=C\CCCl)cccc1OCCCCNC(=O)c1ccc(CNC(=O)CCOCCOCCOCCOCCOCCOCCOCCOCCOCCOCCOCCOCCNC(=O)CCCC[C@@H]2SC[C@@H]3NC(=O)N[C@@H]32)cc1,55
19,COc1cc(CCCCl)ccc1C(=O)NCCCNC(=O)c1ccc(CNC(=O)CCOCCOCCOCCOCCOCCOCCOCCOCCOCCOCCOCCOCCNC(=O)CCCC[C@@H]2SC[C@@H]3NC(=O)N[C@@H]32)cc1 [drawing 133],200
20,COc1cc(CCCCl)ccc1C(=O)NCCCNC(=O)c1ccc(CNC(=O)CCOCCOCCOCCOCCOCCOCCOCCOCCOCCOCCOCCOCCNC(=O)CCCC[C@@H]2SC[C@@H]3NC(=O)N[C@@H]32)cc1 [drawing 134],280
21,COc1cc(CCCCl)ccc1C(=O)NCCCNC(=O)c1ccc(CNC(=O)CCOCCOCCOCCOCCOCCOCCOCCOCCOCCOCCOCCOCCNC(=O)CCCC[C@@H]2SC[C@@H]3NC(=O)N[C@@H]32)cc1 [drawing 135],200

# Tested on: endogenous GABAAR
# Test: all-optical assay of GABAAR positive allosteric modulation in primary neuronal culture
# Format: cell-based, rat
# Settings: not given
# Description: as §1
# Diazepam/Flumazenil: Dissociated neurons were electroporated with constructs and cultured for 2 weeks. The assay was performed in a modified GABAR-BASE, with an increased KCl concentration to enhance neuronal excitability and a lowered GABA level for a baseline. Again, a DRUG plate and three DoseGroups were used as described above for dosing, but no final WASH. […] Imaging alignment, proof-reading and analysis were performed in a similar fashion to the GABAR assay using MatLab.
# Next it was sought to extend DART to allosteric modulators. The allosteric binding site of the GABAAR, known to bind several drugs, with effects ranging from negative to positive allosteric modulation was first analyzed. Diazepam represents the prototypic PAM at this site, and is the most clinically significant of the class. Thus, a diazepam analog was synthesized with a short alkyne attached to the amide of the diazepam core; an attachment site known to tolerate substituents and thought from structural inspection of the GABAAR-bound diazepam pose to allow linker access to free solution. Click chemistry was used to assemble the full-length diazepam.1DART.2 and leveraged an all-optical assay of endogenous GABAARs in primary neuronal culture, with ChR2 and GCaMP6s in the same cell.
row,SMILES,GABAAR receptor modulation
1,"CCOC(=O)c1ncn2c1CN(C)C(=O)c1cc(F)ccc1-2 [flumazenil, reference compound]",no receptor modulation

# Same assay, conditions: traditional (non-DART) version
row,SMILES,effect on +HTP vs ddHTP cells
1,"CN1C(=O)CN=C(c2ccccc2)c2cc(Cl)ccc21 [diazepam, reference compound]",equally affected
